The target in data set [1] is Serine/threonine-protein kinase AKT (Homo sapiens, UniProt P31751+Q9Y243+P31749). Briefly: Inhibition of Akt (unknown origin). It is filed as protein assay.
The nature of data set [2]: Inhibition of p70S6K (unknown origin). Also on record: species or system Homo sapiens.
Data set [3] is described as follows: Inhibition of Akt/p70S6K in human MDA-MB-436 cells assessed as inhibition of S6 phosphorylation. It is filed as cell-based.
Data set [4] addresses Voltage-gated inwardly rectifying potassium channel KCNH2 (Homo sapiens, UniProt Q12809). Briefly: Inhibition of human ERG by patch clamp assay. In general terms: In patch-clamp work, channel activity is measured electrically.
Data set [5] deals with hERG (KCNH2) (Homo sapiens, UniProt Q12809). Description: Inhibition of human ERG at 10 uM by patch clamp assay.

Some results are limits rather than exact numbers.

Chain of Voltage-gated inwardly rectifying potassium channel KCNH2 (Q12809 whole entry): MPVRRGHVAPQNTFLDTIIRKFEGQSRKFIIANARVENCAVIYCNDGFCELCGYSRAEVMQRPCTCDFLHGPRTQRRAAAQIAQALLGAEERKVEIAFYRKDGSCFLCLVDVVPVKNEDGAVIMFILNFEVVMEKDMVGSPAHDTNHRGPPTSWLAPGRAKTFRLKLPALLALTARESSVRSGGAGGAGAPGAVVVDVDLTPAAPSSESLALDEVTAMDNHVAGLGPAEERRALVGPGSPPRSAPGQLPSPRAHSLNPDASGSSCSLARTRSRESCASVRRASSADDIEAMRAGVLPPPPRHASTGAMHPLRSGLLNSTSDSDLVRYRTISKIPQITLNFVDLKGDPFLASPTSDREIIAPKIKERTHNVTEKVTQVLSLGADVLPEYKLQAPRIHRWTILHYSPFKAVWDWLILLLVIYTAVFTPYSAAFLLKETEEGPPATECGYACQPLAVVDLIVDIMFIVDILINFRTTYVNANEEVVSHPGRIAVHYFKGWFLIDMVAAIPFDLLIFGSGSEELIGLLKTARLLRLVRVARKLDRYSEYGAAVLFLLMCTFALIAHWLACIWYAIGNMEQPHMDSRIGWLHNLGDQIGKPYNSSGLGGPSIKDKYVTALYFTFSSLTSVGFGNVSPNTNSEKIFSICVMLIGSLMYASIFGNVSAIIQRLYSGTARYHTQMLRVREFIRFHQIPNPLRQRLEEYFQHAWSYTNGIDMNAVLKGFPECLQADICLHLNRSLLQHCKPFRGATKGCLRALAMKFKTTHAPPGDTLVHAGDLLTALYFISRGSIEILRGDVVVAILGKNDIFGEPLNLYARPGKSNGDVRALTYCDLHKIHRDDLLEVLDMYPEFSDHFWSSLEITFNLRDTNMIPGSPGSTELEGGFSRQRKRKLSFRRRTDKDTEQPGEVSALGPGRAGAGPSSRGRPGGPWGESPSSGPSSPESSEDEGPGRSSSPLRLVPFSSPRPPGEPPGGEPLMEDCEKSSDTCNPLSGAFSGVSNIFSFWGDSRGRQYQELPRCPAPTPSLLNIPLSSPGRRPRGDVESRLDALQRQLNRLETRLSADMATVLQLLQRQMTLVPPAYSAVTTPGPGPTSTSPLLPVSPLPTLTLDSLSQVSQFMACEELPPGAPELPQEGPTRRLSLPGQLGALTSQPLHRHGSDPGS
Chain of hERG (KCNH2) (Q12809 whole entry): as above

A word on the IC50: it is the concentration that inhibits the measured activity by half. Regarding `Cn1cc(-c2ccc(F)c(C(F)(F)F)c2)nc1C1CCN(c2cc(N)ncn2)CC1`, the IC50 in data set [1] is more than 1000 nM; in data set [2], 102 nM; in data set [3], 22000 nM.
With `C=Cc1c(N)ncnc1N1CCC(c2nc(-c3ccc(F)c(C(F)(F)F)c3)cn2CCN2CCC2)CC1`, the IC50 stood at 4.2 nM in data set [1], 930 nM in data set [4] and 2.6 nM in data set [2].
As for `Cn1cc(-c2ccc(F)c(C(F)(F)F)c2)nc1C1CCN(c2ncnc(N)c2-c2ccccc2F)CC1`, the IC50 is more than 1000 nM in data set [1], 3 nM in data set [2] and 800 nM in data set [3].
As for `Nc1ncnc(N2CCC(c3nc(-c4ccc(F)c(C(F)(F)F)c4)cn3CCN3CCC3)CC2)c1-c1ccc(F)cc1`, the values for the IC50 in data set [1], in data set [4] and in data set [2] were 23 nM, 1300 nM and 2.4 nM, respectively.
Regarding `Cc1ncc(-c2c(N)ncnc2N2CCC(c3nc(-c4ccc(F)c(C(F)(F)F)c4)cn3C)CC2)s1`, the IC50 in data set [1] came out at 850 nM; in data set [2], 2.1 nM; in data set [3] it was 600 nM.
In the case of `COc1c(N)ncnc1N1CCC(c2nc(-c3ccc(F)c(C(F)(F)F)c3)cn2C)CC1`, the IC50 in data set [1] was 518 nM; in data set [2], 2.2 nM; in data set [3] it was 1200 nM.
Regarding `NCC(c1ccc(C(F)(F)F)cc1)N1CCN(c2ncnc(N)c2-c2ccc(F)cc2)CC1` (stereo not given), the IC50 in data set [1] was 350 nM; in data set [2], 2.2 nM; in data set [3] it was 400 nM.
Taken in the same sequence, the figures for `NCC(c1ccc(F)c(C(F)(F)F)c1)N1CCN(c2ncnc(N)c2-c2ccc(F)cc2)CC1` (stereo not given) were more than 1000 nM, 14 nM and 2900 nM.
Taken in the same sequence, the figures for `NCC(c1ccc(F)cc1)N1CCN(c2ncnc(N)c2-c2ccc(F)cc2)CC1` (stereo not given) were more than 1000 nM, 4.4 nM and 1900 nM.
As for `Nc1ncnc(N2CCC(c3nc(-c4ccc(F)c(C(F)(F)F)c4)cn3CCN3CCC3)CC2)c1C1CCC1`, the values for the IC50 in data set [1], in data set [4] and in data set [2] were 7.3 nM, 1300 nM and 6 nM, respectively.
On to `CN(C)CCn1cc(-c2ccc(F)c(C(F)(F)F)c2)nc1C1CCN(c2ncnc(N)c2C#N)CC1`, for which the IC50 in data set [1] amounted to 6.9 nM; in data set [4], 1600 nM; in data set [2] it was 1.8 nM; in data set [3], 55000 nM.
Consider `Cn1cc(-c2ccc(F)c(C(F)(F)F)c2)nc1C1CCN(c2ncnc(N)c2-c2cccc(F)c2)CC1`, for which the 50% inhibitory concentration (IC50) was more than 1000 nM in data set [1], 1.6 nM in data set [2] and 400 nM in data set [3].
Regarding `Cn1cc(-c2ccc(F)c(C(F)(F)F)c2)nc1C1CCN(c2ncnc(N)c2C#N)CC1`, the values for the IC50 in data set [1], in data set [2] and in data set [3] were 260 nM, 1.3 nM and 300 nM, respectively.
In the case of `Cn1cc(-c2ccc(F)c(C(F)(F)F)c2)nc1C1CCN(c2ncnc(N)c2-c2cncnc2)CC1`, the IC50 in data set [1] stood at 880 nM; in data set [2], 2.3 nM; in data set [3], 700 nM.
Regarding `CC(C)c1c(N)ncnc1N1CCC(c2nc(-c3ccc(F)c(C(F)(F)F)c3)cn2CCN2CCC2)CC1`, the IC50 in data set [1] was 6.6 nM; in data set [4] it was 1800 nM; in data set [2] it was 3.5 nM; in data set [3], 78000 nM.
With `C=Cc1c(N)ncnc1N1CCC(c2nc(-c3ccc(F)c(C(F)(F)F)c3)cn2CCN(C)C)CC1`, the concentration for half-maximal inhibition (IC50) amounted to 9.1 nM in data set [1], 1100 nM in data set [4] and 3.5 nM in data set [2].
In the case of `Nc1ncnc(N2CCC(c3nc(-c4ccc(F)c(C(F)(F)F)c4)cn3CCN3CCC3)CC2)c1Cl`, the half-inhibitory concentration (IC50) in data set [1] stood at 1 nM; in data set [4], 1900 nM; in data set [2], 0.6 nM; in data set [3] it was 64000 nM.
`CCc1c(N)ncnc1N1CCC(c2nc(-c3ccc(F)c(C(F)(F)F)c3)cn2CCN2CCC2)CC1`: the IC50 came to 4 nM in data set [1], 1600 nM in data set [4], 2 nM in data set [2] and 49000 nM in data set [3].
On to `Cn1cc(-c2ccc(F)c(C(F)(F)F)c2)nc1C1CCN(c2ncnc(N)c2C(N)=O)CC1`, for which the IC50 came out at 1600 nM in data set [1], 1900 nM in data set [4], 3 nM in data set [2] and 2300 nM in data set [3].
One may read the inhibition as the change of the read-out against control, counted positive when it falls. A low value points to little suppression. `Cn1cc(-c2ccc(F)c(C(F)(F)F)c2)nc1C1CCN(c2ncnc3[nH]ncc23)CC1` [LY-2584702] came in with an inhibition at 10 µM in data set [5] of 29%.
As to `Nc1ncnc(N2CCC(c3nc(-c4ccc(F)c(C(F)(F)F)c4)cn3CCN3CCCCC3)CC2)c1-c1ccc(F)cc1`, the 50% inhibitory concentration (IC50) in data set [1] is 350 nM; in data set [2], 18 nM.
Consider `NCC(c1ccccc1)N1CCN(c2ncnc(N)c2-c2ccc(F)cc2)CC1` (stereo not given), for which the IC50 in data set [1] was more than 1000 nM; in data set [2], 6.3 nM; in data set [3] it was 2600 nM.
On to `CN(C)CCn1cc(-c2ccc(F)c(C(F)(F)F)c2)nc1C1CCN(c2ncnc(N)c2-c2ccc(F)cc2)CC1`, for which the half-inhibitory concentration (IC50) in data set [1] is 230 nM; in data set [4], 1200 nM; in data set [2], 7.3 nM.
On to `CN(C)CC(c1ccc(C(F)(F)F)cc1)N1CCN(c2ncnc(N)c2-c2ccc(F)cc2)CC1` (stereo not given), for which the half-inhibitory concentration (IC50) is more than 1000 nM in data set [1], 4.9 nM in data set [2] and 1200 nM in data set [3].
As for `Nc1ncnc(N2CCN(C(CN3CCC3)c3ccc(C(F)(F)F)cc3)CC2)c1-c1ccc(F)cc1` (stereo not given), the figures for the IC50 in data set [1], in data set [2] and in data set [3] were more than 1000 nM, 4.2 nM and 1500 nM, respectively.
Turning to `CCc1c(N)ncnc1N1CCC(c2nc(-c3ccc(F)c(C(F)(F)F)c3)cn2CCN(C)C)CC1`, the IC50 worked out at 12 nM in data set [1] and 3.7 nM in data set [2].
Regarding `CN(C)CCn1cc(-c2ccc(F)c(C(F)(F)F)c2)nc1C1CCN(c2ncnc(N)c2C2CC2)CC1`, the IC50 was 4.8 nM in data set [1], 830 nM in data set [4] and 3.2 nM in data set [2].
As for `Cn1cc(-c2ccc(F)c(C(F)(F)F)c2)nc1C1CCN(c2ncnc(N)c2-c2ccncc2)CC1`, the IC50 in data set [1] worked out at 930 nM; in data set [2], 2 nM; in data set [3] it was 400 nM.
`Nc1ncnc(N2CCC(c3nc(-c4ccc(F)c(C(F)(F)F)c4)cn3CCN3CCCC3)CC2)c1-c1ccc(F)cc1`: the figures for the half-maximal inhibitory concentration (IC50) in data set [1], in data set [4] and in data set [2] were 140 nM, 1500 nM and 8.2 nM, respectively.
`CN(C)CCn1cc(-c2ccc(F)c(C(F)(F)F)c2)nc1C1CCN(c2ncnc(N)c2C(N)=O)CC1`: the IC50 in data set [1] was 84 nM; in data set [4] it was 4000 nM; in data set [2], 3.5 nM; in data set [3], 89000 nM.
Consider `N#Cc1c(N)ncnc1N1CCC(c2nc(-c3ccc(F)c(C(F)(F)F)c3)cn2CCN2CCC2)CC1`, for which the results for the IC50 in data set [1], in data set [2] and in data set [3] were 2.2 nM, 0.8 nM and 52000 nM, respectively.

(Values after ChEMBL document CHEMBL4823315 (Bioorg Med Chem Lett, 2021).)
